This note sets out measurements from the OligoGym collection.

These antisense oligonucleotides have a phosphorothioate backbone; sugars and methylation of C are not fully specified.
Note: test concentration or dose not given here.

The first data set has as its target EGR1. Particulars: ASO.
Take AACGGAACAACACTCTGA: the remaining target (mRNA or protein) (fraction of control) was ≥ 1.

For the sequence ACTCGATTTTCTAGCATT, the remaining target (mRNA or protein) (fraction of control) is ≥ 1.

As for AGAGGATCACCATTGGTT, the remaining target (mRNA or protein) (fraction of control) was ≥ 1.

AGATGGTGCTGAGGACGA: the remaining target (mRNA or protein) (fraction of control) was ≥ 1.

Take ATGCCTCTTGCGTTCATC: the remaining target (mRNA or protein) (fraction of control) is ≥ 1.

As to ATGTCCGAAAGCCCTGTG, the remaining target (mRNA or protein) (fraction of control) is ≥ 1.

Consider CAAAAGGCACCAAGACGT, for which the remaining target (mRNA or protein) (fraction of control) was ≥ 1.

Regarding CAGCAGCATCATCTCCTC, the remaining target (mRNA or protein) (fraction of control) is ≥ 1.

CATGGCACAGACACTGTA: the remaining target (mRNA or protein) (fraction of control) was ≥ 1.

On to CCACTGGGCAAGCGTAAG, for which the remaining target (mRNA or protein) (fraction of control) is ≥ 1.

In turn, CCCCGCCGCCTCCACCGC had a remaining target (mRNA or protein) (fraction of control) of 0.38.

As for CCTGCGGCGGCGGAAGCT, the remaining target (mRNA or protein) (fraction of control) is ≥ 1.

For CGCAGGCGAAGGGCTTTT, the remaining target (mRNA or protein) (fraction of control) was ≥ 1.

The sequence CGGCAGGGTAGGCAGGAG yielded a remaining target (mRNA or protein) (fraction of control) of 0.56.

For CTCACTAGGCCACTGACC, the remaining target (mRNA or protein) (fraction of control) was ≥ 1.

Take CTCGCCCGTGTCCGCCTG: the remaining target (mRNA or protein) (fraction of control) was ≥ 1.

On to GAAAATGTCAGTGTTCGG, for which the remaining target (mRNA or protein) (fraction of control) was ≥ 1.

Consider GAGAGGAGAAGGAGGTGG, for which the remaining target (mRNA or protein) (fraction of control) was ≥ 1.

With GATGGCGGCGGCGGCTCC, the remaining target (mRNA or protein) (fraction of control) was ≥ 1.

On to GATGTCAGGAAAAGACTC, for which the remaining target (mRNA or protein) (fraction of control) was ≥ 1.

For GGAAGGGCTTCTGGTCTG, the remaining target (mRNA or protein) (fraction of control) was ≥ 1.

As for GGAATTGGCTCTGAGAAC, the remaining target (mRNA or protein) (fraction of control) was ≥ 1.

In turn, GGGCCTGGCCGGGTTACA came in with a remaining target (mRNA or protein) (fraction of control) of 0.4.

Sequence GGGCGAGTGAGGAAAGGA registered a remaining target (mRNA or protein) (fraction of control) of 0.63.

On to GGTAGGAAGAGAGAGAGG, for which the remaining target (mRNA or protein) (fraction of control) was ≥ 1.

With GGTCCTGGGAGCCCGACT, the remaining target (mRNA or protein) (fraction of control) was ≥ 1.

For GGTGAAGAACTTGGACAT, the remaining target (mRNA or protein) (fraction of control) was ≥ 1.

GTGGGCAGAAAGGATTGT came in with a remaining target (mRNA or protein) (fraction of control) of 0.8.

GTTTGATGAGCTGGGACT: the remaining target (mRNA or protein) (fraction of control) was ≥ 1.

Regarding TAATACAATAGAATATGC, the remaining target (mRNA or protein) (fraction of control) was ≥ 1.

In the case of TATCCAAAATCCATGCAA, the remaining target (mRNA or protein) (fraction of control) is ≥ 1.

Turning to TCGAGTGGTTTGGCTGGG, the remaining target (mRNA or protein) (fraction of control) was ≥ 1.

With TCGCTGCGGCTGAAGTTG, the remaining target (mRNA or protein) (fraction of control) is ≥ 1.

For TCTCCTCCTCCTGTCCTT, the remaining target (mRNA or protein) (fraction of control) was ≥ 1.

On to TCTGCTTTCTTGTCCTTC, for which the remaining target (mRNA or protein) (fraction of control) is ≥ 1.

In the case of TCTTTCCCCTTTCCCTTT, the remaining target (mRNA or protein) (fraction of control) is 0.93.

On to TGCGGATGTGGCGGGTGA, for which the remaining target (mRNA or protein) (fraction of control) is ≥ 1.

As for TGCTGACCTGGGCCGGGA, the remaining target (mRNA or protein) (fraction of control) was ≥ 1.

Regarding TGCTGTCGTTGGATGGCA, the remaining target (mRNA or protein) (fraction of control) was ≥ 1.

Regarding TGGGTGCAGGCTCCAGGG, the remaining target (mRNA or protein) (fraction of control) is ≥ 1.

In another data set the target is PLA2G4A. Particulars: ASO.
As to AAACGCCCAAAACTCTGT, the remaining target (mRNA or protein) (fraction of control) was ≥ 1.

For the sequence AAAGAGGTAAAGGGCATT, the remaining target (mRNA or protein) (fraction of control) was ≥ 1.

With AAATAAGTCGGGAGCCAT, the remaining target (mRNA or protein) (fraction of control) was ≥ 1.

As to AAATCGTAGGTCTGGGCA, the remaining target (mRNA or protein) (fraction of control) was ≥ 1.

Consider AAGGGATACGGCAGGTTA, for which the remaining target (mRNA or protein) (fraction of control) was ≥ 1.

The sequence AAGTCGGGAGCCATAAAA had a remaining target (mRNA or protein) (fraction of control) of 0.87.

For ACCAGAAACGCCCAAAAC, the remaining target (mRNA or protein) (fraction of control) worked out at 0.21.

With AGAGGTAAAGGGCATTGT, the remaining target (mRNA or protein) (fraction of control) is ≥ 1.

As for AGCACTCCTTCAGCCCTT, the remaining target (mRNA or protein) (fraction of control) was determined as 0.29.

AGCCCACTGTCCACTACA came in with a remaining target (mRNA or protein) (fraction of control) of 0.2.

On to AGGCCATTATCATACGAT, for which the remaining target (mRNA or protein) (fraction of control) is ≥ 1.

The target of another data set is REL. Particulars: ASO.
Take AAACAGTAGTATTGGAAT: the remaining target (mRNA or protein) (fraction of control) was ≥ 1.

Take AATCCACTTGAGATGGGC: the remaining target (mRNA or protein) (fraction of control) is 0.74.

As for AATGGATTGATTCCTGCC, the remaining target (mRNA or protein) (fraction of control) is ≥ 1.

Turning to ACACGACAAATCCTTAAT, the remaining target (mRNA or protein) (fraction of control) is ≥ 1.

ACTAATGTAATTCTCACT: the remaining target (mRNA or protein) (fraction of control) was ≥ 1.

As for ACTGACTATCTTGAACAA, the remaining target (mRNA or protein) (fraction of control) is ≥ 1.

On to AGTCAGGAGGCCGAGGGA, for which the remaining target (mRNA or protein) (fraction of control) was ≥ 1.

ATACGCACCGGAGGCCAT: the remaining target (mRNA or protein) (fraction of control) is ≥ 1.

As for ATGCCTTTTGCTTCCCAA, the remaining target (mRNA or protein) (fraction of control) amounted to 0.14.

Sequence ATGCTGCCTGCTGATCGC had a remaining target (mRNA or protein) (fraction of control) of 0.41.

As for ATTCTCAGTCAGTATTAT, the remaining target (mRNA or protein) (fraction of control) worked out at 0.75.

With ATTTGTATCTAAAACGCA, the remaining target (mRNA or protein) (fraction of control) was ≥ 1.

With CAAAATGCTGCATCTATA, the remaining target (mRNA or protein) (fraction of control) was 0.79.

Consider CACAATTCTTGTTTACAC, for which the remaining target (mRNA or protein) (fraction of control) is 0.84.

In the case of CACAGTCTCACCACATTG, the remaining target (mRNA or protein) (fraction of control) is 0.39.

On to CACTAACTTCCTGGTCAG, for which the remaining target (mRNA or protein) (fraction of control) was found to be 0.48.

CCATATAAATCTGCTGAT: the remaining target (mRNA or protein) (fraction of control) is ≥ 1.

CGAGACAACAGGAGGAAG: the remaining target (mRNA or protein) (fraction of control) amounted to 0.8.

The sequence CGGTTGTTGTCTGTGCTG yielded a remaining target (mRNA or protein) (fraction of control) of 0.38.

CTCCTCCTTCTTCCCGCC came in with a remaining target (mRNA or protein) (fraction of control) of 0.78.

CTTCCCGCAGGCAGCTCC showed a remaining target (mRNA or protein) (fraction of control) of 0.56.

CTTTTCCATAATAGTTCA showed a remaining target (mRNA or protein) (fraction of control) of 0.85.

On to GAAGTCTTGGATTATCAG, for which the remaining target (mRNA or protein) (fraction of control) is ≥ 1.

The sequence GAATGGTGGGATACCTTG showed a remaining target (mRNA or protein) (fraction of control) of 0.43.

As for GAGGTTTATATGGGTCAT, the remaining target (mRNA or protein) (fraction of control) was ≥ 1.

GTATTGCCTGAGCGTGGG showed a remaining target (mRNA or protein) (fraction of control) of 0.57.

GTCTCAAGTCTCTTGGGT: the remaining target (mRNA or protein) (fraction of control) stood at 0.41.

For GTCTGCGTTCTTGTCCAA, the remaining target (mRNA or protein) (fraction of control) was ≥ 1.

As to TCATATTCACAGAACAAT, the remaining target (mRNA or protein) (fraction of control) was ≥ 1.

In turn, TCATCGGCATTGTTGTAA had a remaining target (mRNA or protein) (fraction of control) of 0.54.

For TCATTTATCATGCTGTTA, the remaining target (mRNA or protein) (fraction of control) was ≥ 1.

Consider TCCCAAAGTGCTAGGATT, for which the remaining target (mRNA or protein) (fraction of control) is 0.7.

As to TCTCTCACAACTGCATCA, the remaining target (mRNA or protein) (fraction of control) came out at 0.58.

As to TCTTTCTGAACTTTGTCA, the remaining target (mRNA or protein) (fraction of control) was found to be 0.98.

Turning to TGATCCACCCGCCTTGGC, the remaining target (mRNA or protein) (fraction of control) is ≥ 1.

For TGTAATCCCAGCACTTTG, the remaining target (mRNA or protein) (fraction of control) was 0.73.

Consider TTACTGTTACGGGTTCTG, for which the remaining target (mRNA or protein) (fraction of control) worked out at 0.64.

TTGTATTCGCTATGTCCA yielded a remaining target (mRNA or protein) (fraction of control) of 0.53.

TTTCTACGTGATCCTGGC returned a remaining target (mRNA or protein) (fraction of control) of 0.85.

Take TTTGCTTTATTGCCGTAA: the remaining target (mRNA or protein) (fraction of control) was ≥ 1.

In the next data set the target is SUMO1. Particulars: ASO.
For the sequence ATAATGAATAATGAGCAC, the remaining target (mRNA or protein) (fraction of control) was ≥ 1.

ATGATTCTTTGAGTTTCT displayed a remaining target (mRNA or protein) (fraction of control) of 0.59.

Sequence ATTCACCTTCCTTCTTAT gave a remaining target (mRNA or protein) (fraction of control) of 0.55.

Take ATTCTCTGACCCTCAAAG: the remaining target (mRNA or protein) (fraction of control) was ≥ 1.

For CAGATGTTTCAAAGAGAT, the remaining target (mRNA or protein) (fraction of control) was ≥ 1.

On to CAGTATGATTCTTTGAGT, for which the remaining target (mRNA or protein) (fraction of control) was 0.53.

Sequence CCACAGTTCAGTTCTCTG had a remaining target (mRNA or protein) (fraction of control) of 0.34.

As for CCAGGAGTGAAGTAATCA, the remaining target (mRNA or protein) (fraction of control) was ≥ 1.

Sequence CCCCTTCCCGACAGCACA registered a remaining target (mRNA or protein) (fraction of control) of 0.92.

For CCTCAAAGAGAAACCTGA, the remaining target (mRNA or protein) (fraction of control) is ≥ 1.

Turning to CTCAGTTGAAGGTTTTGC, the remaining target (mRNA or protein) (fraction of control) is ≥ 1.

As to CTGTCCAATGACTTTGAG, the remaining target (mRNA or protein) (fraction of control) is ≥ 1.

In the case of CTTTGGAGTTAGTCATTA, the remaining target (mRNA or protein) (fraction of control) was ≥ 1.

GATAAACTTCAATCACAT: the remaining target (mRNA or protein) (fraction of control) was ≥ 1.

GCAGTAACTTCCGCTACG: the remaining target (mRNA or protein) (fraction of control) is ≥ 1.

As to GGCACTTCAGTAACTTTC, the remaining target (mRNA or protein) (fraction of control) stood at 0.79.

With GGGTCTCCGCACAGCAGC, the remaining target (mRNA or protein) (fraction of control) is ≥ 1.

Turning to GGGTTTACAAATCCTTCC, the remaining target (mRNA or protein) (fraction of control) was ≥ 1.

Take GTCTTTGACAGTATGATT: the remaining target (mRNA or protein) (fraction of control) is ≥ 1.

Regarding GTTTCTTGAGATGTGTTG, the remaining target (mRNA or protein) (fraction of control) amounted to 0.86.

Consider TCACCTTATCTGTCATCT, for which the remaining target (mRNA or protein) (fraction of control) was ≥ 1.

As to TCCATCTCCCACTGAAAG, the remaining target (mRNA or protein) (fraction of control) was 0.53.

For the sequence TCCGTTTTGAACACCACA, the remaining target (mRNA or protein) (fraction of control) was determined as 0.29.

In the case of TGAATCTCACTGCTATCC, the remaining target (mRNA or protein) (fraction of control) was ≥ 1.

Sequence TTCATTGGAACACCCTGT displayed a remaining target (mRNA or protein) (fraction of control) of 0.32.

On to TTCCTCCATTCCCAGTTC, for which the remaining target (mRNA or protein) (fraction of control) is ≥ 1.

With TTCTTTGAGTTTCTTGAG, the remaining target (mRNA or protein) (fraction of control) is ≥ 1.

Consider TTCTTTTGGAGTATGATT, for which the remaining target (mRNA or protein) (fraction of control) was ≥ 1.
